# Data reported in patent US10314847B2, “Scalarane sesterterpenoid, pharmaceutical composition and topoisomerase II and Hsp90 inhibitor for treating cancer, and use and preparation method thereof” (NATIONAL DONG HWA UNIVERSITY, priority 2017, dated 2019).
# Key:
# [1] = test system: K562; assay: MTT assay, cytotoxic effect on K562; assay type: cell-based; settings: Homo sapiens; K562, molar value in text
# Text: (§1) The cell lines were obtained from the American Type Culture Collection (ATCC, Manassas, Va., U.S.A.) or the Japanese Collection of Research Biosources (JCRB) Cell Bank (Japan). […] Antibodies against XIAP, NFκB (p65), GADD, CDK 4, HSF 1, ATF 6 and β-tubulin were obtained from Santa Cruz Biotechnology (Santa Cruz, Calif., U.S.A.). The Hybond ECL transfer membrane and ECL Western blotting detection kits were obtained from Amersham Life Sciences (Amersham, U.K.).
# (§2) Several cancer cell lines including leukemia K562, Molt 4, and HL 60 cells, prostate cancer LNCaP cells, colon cancer DLD-1 cells and breast cancer T-47D cells were used to evaluate the antiproliferative activity (referring to Table 2).
# [2] = test system: U937; assay: MTT assay, cytotoxic effect on U937; assay type: cell-based; settings: Homo sapiens, U-937; U937, molar value in text
# Text: as §1, §2
# [3] = test system: Molt 4 cells; assay: Annexin V/PI apoptosis assay; assay type: cell-based, human; settings: Molt 4 cells, 0.0625, 0.125 and 0.25 μg/mL, 24 hours, dose-dependent
# Description: Annexin V/Propidium Iodide (PI) Apoptosis Assay:
# The externalization of phosphatidylserine (PS) and membrane integrity were quantified using an annexin V-fluorescein isothiocyanate (annexin V-FITC) staining kit. In brief, 10^6 cells were grown in 35 mm diameter plates and were labeled with annexin V-FITC (10 μg/mL) and PI (20 μg/mL) prior to harvesting. After labeling, all plates were washed with a binding buffer and harvested. Cells were resuspended in the binding buffer at a concentration of 2×10^5 cells/mL before analysis by flow cytometer FACS-Calibur (Becton-Dickinson, San Jose, Calif., U.S.A.) and CellQuest software. Approximately 10,000 cells were counted for each determination.
# [4] = test system: Molt 4 cells; assay: Neutral comet assay for DNA double-strand breaks; assay type: cell-based, human; settings: 0.0625 μg/mL, 0, 3, 6 and 9 hours
# Description: Neutral Comet Assay for Detection of DNA Double-Strand Breaks (DSBs):
# The assay was carried out using a CometAssay™ Kit (Trevigen, Gaithersburg, Md., U.S.A.) following the manufacturer's protocol for the neutral Comet assay. Briefly, cancer cells (2×10^5 cells/mL) were treated with compound 1 (0.0625 μg/mL) at the indicated time. Cells were combined with 1% low melting point agarose at a ratio of 1:10 (v/v) and immediately 75 μL of the mixture was pipetted onto CometSlide™ and allowed to set at 4° C. in the dark. The slides were immersed in an ice-cold lysis solution (Trevigen) for 30 to 60 minutes. […] The fluorescence images were analyzed using the TriTek Comet Image program to circumscribe the “head” and the “tail” regions of each comet and the integrated fluorescence values of each defined area were recorded. The comet length was measured from the trailing edge of the nucleus to the leading edge of the tail. […] The results were expressed as mean±standard deviation (SD) (*p<0.05).
# Oxidative stress is manifested by ROS overexpression and cannot be balanced by the available antioxidant machinery. […] The induction of the intracellular formation of ROS by compound 1 was determined with a carboxyl derivative of fluorescein, carboxy-H2DCFDA dye using flow cytometric analysis. […]
# [5] = test system: Hsp90 client proteins; assay: Western blot of Hsp90, Hsp70 and Hsp90 client proteins; assay type: cell-based, human; settings: Molt 4 cells, 0.0625 μg/mL
# Description: (§3) The induction of Hsp70 is the biomarker of Hsp90 with N-terminal inhibition. Aiming to understand the relation between Hsp90 function and the expression of Hsp70 and 90 clients, Molt 4 cells were treated with compound 1 (0.0625 μg/mL) for different time intervals. […] Furthermore, as shown in FIG. 5(B), Hsp90 client proteins were suppressed, including p70^S6K, NFκB, Raf-1, p-GSK3β, MEK 1 and XIAP ([…] protein), MDM 2 and Rb2 (oncoprotein), and CDK4 (cell cycle regulatory protein), HIF 1 and HSF1 (transcription factor). The majority of Hsps accumulate in subcellular localizations that determine whether a cell is going to die or differentiate. Furthermore, the localization of Hsp70 in response to the compound 1 treatment was identified using immunofluorescence by confocal microscope.
# [6] = test system: Hsp70; assay: Immunofluorescence analysis of Hsp70 localization; assay type: cell-based, human; settings: Molt 4 cells, confocal microscope
# Description: Immunofluorescence Analysis:
# After treatment with the tested compound, cells were fixed with 4% paraformaldehyde in 50 mM HEPES buffer (pH 7.3) for 30 minutes, and permeabilized for 20 minutes with 0.2% Trition X-100 in PBS (pH 7.4). To prevent non-specific protein binding, cells were incubated with 5% BSA in PBS containing 0.05% Trition X-100 (T-PBS) for 1 hour at room temperature. Cells were then incubated with the primary Hsp70 antibodies (1:500) for 2 hours and further with secondary antibodies (Alexa Fluor […] goat anti-mouse IgG (H+L) (Life Technologies, Carlsbad, Calif., U.S.A.)) diluted at 1:1000 for 1 hour at room temperature. After washing with PBS, cells were observed under a FV1000 confocal laser scanning microscope (Olympus, Tokyo, Japan).
# as §3, with “The majority of Hsps accumulate in subcellular localizations that determine whether a cell is going to die or differentiate. Furthermore, the localization of Hsp70 in response to the compound 1 treatment was identified using immunofluorescence by confocal microscope.” left out
# [7] = test system: Cal-27
smiles,measurement,setting,value
"CC[C@@]1(C)CCC[C@]2(C)[C@H]3C[C@@H](OC(=O)C[C@@H](C)O)[C@]4(C)[C@@H](C=O)C(C(C)=O)=CC[C@H]4[C@]3(C)CC[C@@H]12 (relative stereo) [Compound 1, 12β-(3′β-hydroxybutanoyloxy)-20,24-dimethyl-24-oxo-scalara-16-en-25-al]",IC50,[1],2.08 nM
same,IC50,[2],2.08 nM
same,Apoptotic population (annexin-V/PI),[3],increase in the apoptotic population
same,"DNA migration (comet tail, DSBs)",[4],increased the degree of DNA migration
same,Expression of HSF 1 protein,[5],attenuated
same,"Hsp90 client proteins (p70S6K, NFκB, Raf-1, p-GSK3β, MEK 1, XIAP, MDM 2, Rb2, CDK4, HIF 1, HSF1)",[5],suppressed
same,Expression of Hsp70,[5]; different time intervals,increased in a time-dependent manner
same,Expression of Hsp90 protein,[5]; different time intervals,did not notably attenuate
same,Localization of Hsp70,[6],predominantly accumulated in cytosol
same,"Cytotoxic effect IC50, Cal-27",[7],0.56 µg/mL
